The record followed here is patent US20070224668A1, “Process for producing 4-vinylguaiacol by biodecaroxylation of ferulic acid” (priority 2006, published 2007).

The data set has as its system wild type B. pumilus. Kind of data set: Activity of resting cell in aqueous organic two-phase system (biotransformation of FA to VG). As to conditions: two-phase bioconversion, B. pumilus whole cells.

Procedure: The cells were resuspended in 1 ml of 0.1 M phosphate buffer to a concentration (OD600=5) and mixed with an equal volume of organic solvent in flasks. Biotransformation was started at an initial FA concentration of 36 mM. The experiments were performed under the same conditions as in the mono-phase biotransformation process (Example 1).

As for `CCOC(C)=O` [Ethyl acetate], the “Toxicity of solvent to the cells” value is recorded as “toxic to the cells”.

As to `CCO` [Ethanol], the “Toxicity of solvent to the cells” value is given as “toxic to the cells”.
